According to US20180116960A1, “TREATING FUNGAL INFECTION OF THE NAIL UNIT” (priority 2009, published 2018):
Where a name gives a salt, the structure may show the parent alone.

What was measured:
[1] = stability of terbinafine HCl solutions on standing; assay type: physicochemical
Description: (§1) With 0.1% Tween-80 in water, the solubility of terbinafine HCl in terbinafine HCl-PEG 3350 blend (75/25, W/W) was 4 mg/mL. […] The final pH was 3.0.
(§2) When DMSO is used as the solvent, the solubility of terbinafine HCl was close to 100 mg/mL. […] The solution was made by weighing 100 mg of terbinafine HCl powder in a glass vial and then adding 1 ml of DMSO solvent. The glass vial was sealed and vortexed for 5 minutes with a mini vortexor. The resulting solution was clear.

[2] = solubility of terbinafine HCl in solvents; assay type: physicochemical; settings: thermodynamic from solid
Description: as §1, §2

appearance of solution on standing ([1]; 0.1% Tween-80 in water, room temperature, 5 days): clear but turned cloudy | time the solution was stable ([1]; DMSO solution): up to 7 days | concentration of solution on storage ([1]; DMSO solution, after 14 days up to 22 days): remained constant | concentration of solution on storage ([1]; DMSO solution, at 14 days): 90 mg/mL | solubility at 5 min ([2]; DMSO, organic solvent or mixture): ~100 mg/mL | solubility ([2]; aqueous buffer, phosphate-buffered saline (PBS 1×, starting pH 7.4), final pH 4.2): 780 µg/mL | solubility ([2]; aqueous with cosolvent or surfactant or cyclodextrin, 0.1% Tween-80 in water, terbinafine HCl in terbinafine HCl-PEG 3350 blend (75/25, W/W), final pH 3.0): 4000 µg/mL
Compound: CN(C/C=C/C#CC(C)(C)C)Cc1cccc2ccccc12 [terbinafine HCl]
